Reference: patent publication US20050176826A1, “Use of asc-1 inhibitors to treat neurological and psychiatric disorders” (H. Lundbeck A/S, priority 2002, published 2005)

Key:
[1] = target: T1, D-serine-sensitive Na+-independent transporter in rat cortical membranes (Rattus norvegicus, UniProt P63116); experiment: Na+-independent [3H]D-serine uptake into rat cortical membranes (synaptosomes); type: biochemical
T1 construct: from tissue; host or cells: rat cerebral cortex membranes (P2 synaptosomes), male Wistar rats
T1 sequence (P63116 1-530): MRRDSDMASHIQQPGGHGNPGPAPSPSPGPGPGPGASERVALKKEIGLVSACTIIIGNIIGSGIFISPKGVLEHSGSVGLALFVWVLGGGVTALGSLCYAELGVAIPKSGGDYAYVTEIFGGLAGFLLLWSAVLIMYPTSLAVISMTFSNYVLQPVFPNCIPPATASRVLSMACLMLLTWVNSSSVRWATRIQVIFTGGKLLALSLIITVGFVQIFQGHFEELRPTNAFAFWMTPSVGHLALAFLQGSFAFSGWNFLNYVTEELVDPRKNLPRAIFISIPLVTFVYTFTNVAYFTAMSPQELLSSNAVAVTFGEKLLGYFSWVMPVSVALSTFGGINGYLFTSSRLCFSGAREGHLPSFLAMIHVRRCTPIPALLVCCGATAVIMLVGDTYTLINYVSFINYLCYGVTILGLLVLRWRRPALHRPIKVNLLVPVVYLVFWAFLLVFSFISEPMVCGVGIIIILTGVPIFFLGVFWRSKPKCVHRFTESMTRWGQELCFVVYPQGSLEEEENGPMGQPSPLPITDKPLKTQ
T1 sequence (Q794F9 1-527 partner): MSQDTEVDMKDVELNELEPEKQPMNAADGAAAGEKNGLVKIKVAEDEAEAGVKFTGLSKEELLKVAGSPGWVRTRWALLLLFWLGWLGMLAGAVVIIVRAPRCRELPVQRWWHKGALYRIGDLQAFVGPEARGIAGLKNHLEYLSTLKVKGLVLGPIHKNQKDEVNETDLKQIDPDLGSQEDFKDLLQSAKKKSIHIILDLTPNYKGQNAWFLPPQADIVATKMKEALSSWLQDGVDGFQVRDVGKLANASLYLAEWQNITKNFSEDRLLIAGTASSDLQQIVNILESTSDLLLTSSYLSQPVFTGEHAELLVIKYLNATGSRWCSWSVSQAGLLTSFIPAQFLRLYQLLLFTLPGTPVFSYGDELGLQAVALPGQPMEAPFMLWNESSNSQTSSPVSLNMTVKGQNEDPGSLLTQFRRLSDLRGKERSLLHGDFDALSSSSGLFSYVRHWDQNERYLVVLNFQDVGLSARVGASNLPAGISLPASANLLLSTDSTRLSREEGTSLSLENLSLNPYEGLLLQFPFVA
Procedure: Into cortical membranes: Cortex from male Wistar rats (150-200 g) was homogenized in 0.40 M sucrose and centrifuged at 1000×g for 10 min. […] Test compounds and tissue (1 mg orig. tissue/well) were added to 96 well plates and incubated with [^3H]-D-serine (specific activity=26.8 Ci/mmol, PerkinElmer, Cambridge, U.K.) (100 nM final concentration) for 5 min at 25° C. Samples were filtered on Unifilter GF/B glass fiber (Packard Biosciences, Meriden, Conn., USA) and washed with 3×0.25 mL assay buffer. Measurements of [^3H]-D-serine uptake into whole HEK293 cells expressing human asc-1 were performed in 96 well plates with similar conditions except that the cells were incubated for 15 min with radioligand and washed by dipping twice in cold assay buffer following incubation with radioligand. Accumulated radioactivity was extracted from the cells by adding 200 μL scintillation fluid/well (Ultima Gold, Packard Biosciences) and the plates were counted in a Microplates Scintillation Counter (Packard Biosciences). The D-serine uptake in samples containing test compounds was compared to controls without added compound or controls where transport via the asc-1 was inhibited by addition of e.g. 30 mM L-alanine.

System A transporters = experiment: [3H]AIB transport into cultured rat hepatocytes (Bracy et al.); type: cell-based; conditions: corresponding to 81% inhibition at 5 mM
[2] = system: rat brain (ventral hippocampus) extracellular amino acids; experiment: Microdialysis in rat ventral hippocampus, amino acid levels in dialysate; type: in vivo; conditions: 1 mM infused via microdialysis probe into ventral hippocampus, 140 min (FIG. 1)
From the text: Rats (male wistar) were anaesthetized and intracerebral guide cannulas (CMA/12) were stereotaxically implanted into the brain positioning the dialysis probe tip in the ventral hippocampus (co-ordinates 5.6 mm […] to bregma, lateral −5.0 mm, 7.0 mm ventral to dura). The rats were allowed to recover from surgery for at least 2 days. On the day of the experiment, a microdialysis probe (CMA/12, 0.5 mm diameter, 3 mm length) was inserted through the guide cannula. The probes were connected via a dual channel swivel to a microinjection pump. Perfusion of the microdialysis probe with filtered Ringer solution (145 mM NaCl, 3 mM KCl, 1 mM MgCl2, 1.2 mM CaCl2) was begun shortly before insertion of the probe into the brain and continued for the duration of the experiment at a constant flow of 1 μl/min. After 165 min of stabilization, the experiments were initiated. A 20 min sampling regime was used throughout the experimental period. Time points were corrected for lag time of the perfusate from the microdialysis site to the probe outlet. The compound, S-methyl-L-cysteine (Sigma-Aldrich, St. Louis, USA) was dissolved in filtered Ringer solution (in 1 mM concentration) and was locally infused into the ventral hippocampus by reverse dialysis for 140 min (FIG. 1). After the experiments, the rats were sacrificed by decapitation. The brains were removed, frozen and sectioned (20 μm), and the position of the probes was verified. The concentrations of amino acids in the dialysates were analyzed by means of HPLC with fluorescence detection after precolumn online derivatisation with o-phatalaldehyde. The system consisted of a Hypersil AA-ODS column (5 μm, 2.1×200 mm, Agilent) with a Agilent 1100 fluoresence detector (excitation, 266-340 nm; emission, 305-340 nm). Mobile phases consisted of A: 20 mM sodium acetate, 0.018% triethylamine, 0.3% tetrahydrofuran, pH 7.2. B: 20 mM sodium acetate, 40% acetonitrile and 40% methanol, pH 7.2. The oven temperature was set at 40° C. and flow rate was 0.45 ml/min. Data were collected and analysed using ChemStation software (Agilent) after calibration with a range of standard amino acid solutions (0.1-10 μM). The mean value of 3 consecutive samples immediately preceding compound administration served as the basal level for each experiment and data were converted to percentage of basal (mean basal pre-injection values normalized to 100%).

Compound: CSCC(N)C(=O)O (stereo in doubt) [(S)-methyl-L-cysteine]
- Ki [1]: 6.6 ± 1.8 µM
- IC50 (System A transporters): ~1.2 mM
- level of alanine in rat brain dialysate [2]: marked increase
- level of aspartate in rat brain dialysate [2]: not affected
- level of glutamate in rat brain dialysate [2]: not affected
- level of glycine in rat brain dialysate [2]: marked increase
- level of serine in rat brain dialysate [2]: marked increase
- level of threonine in rat brain dialysate [2]: marked increase
